From patent US10323007B1, “N2N N4-disubstituted quinazoline-2,4-diamines and uses thereof” (University of South Florida, priority 2016, dated 2019)
Converted amounts (≈) assume the structure as drawn. Read-outs that look alike come from different tables or passages of the source.

Tests used:
A. baumannii 1403 [1] = test: MIC assay, strain 1403; format: cell-based, Acinetobacter baumannii; conditions: Acinetobacter baumannii, strain 1403
Experimental: (§1) MIC and MBC assays were performed in this study as documented by us previously.^17,23,24,25 The A. baumannii strains used are detailed in Table 7.

A. baumannii 1646 [2] = test: MIC assay, strain 1646; format: cell-based, Acinetobacter baumannii; conditions: Acinetobacter baumannii
Experimental: as §1

A. baumannii 1649 [3] = test: MIC assay, strain 1649; format: cell-based, Acinetobacter baumannii; conditions: Acinetobacter baumannii, strain 1649
Experimental: as §1

A. baumannii 1650 [4] = test: MIC assay, strain 1650; format: cell-based, Acinetobacter baumannii; conditions: Acinetobacter baumannii, strain 1650
Experimental: as §1

A. baumannii 1651 [5] = test: MIC assay, strain 1651; format: cell-based, Acinetobacter baumannii; conditions: Acinetobacter baumannii, strain 1651
Experimental: as §1

A. baumannii 1652 [6] = test: MIC assay, strain 1652; format: cell-based, Acinetobacter baumannii; conditions: Acinetobacter baumannii, strain 1652
Experimental: as §1

A. baumannii 1403 [7] = test: minimal bactericidal concentration (MBC) assay, strain 1403; format: cell-based; conditions: Acinetobacter baumannii, Table 8, read-out: MBC90 1403
Description: (§2) Lead quinazolines 4, 5, 26, 29, 27, and 30 were selected to be further evaluated for antimicrobial effects. The first assay utilized was a minimal bactericidal concentration (MBC) assay, to assess whether leads compounds were bacteriostatic or bactericidal. The six lead agents were screened to identify their MBC90 towards each of the six A. baumannii isolates used in the SAR studies (Table 8), however for simplicity only the representative data for isolate 1646 is detailed below (Table 6). […] Further to this, we were able to obtain complete eradication of bacterial growth for these two compounds at 1 μM for 24 and 5 μM for 25.
as §1

A. baumannii 1646 [8] = test: minimal bactericidal concentration (MBC) assay, strain 1646; format: cell-based, Acinetobacter baumannii
Description: as §2, §1

A. baumannii 1649 [9] = test: minimal bactericidal concentration (MBC) assay, strain 1649; format: cell-based; conditions: Acinetobacter baumannii, Table 8, read-out: MBC90 1649
Description: as §2, §1

A. baumannii 1650 [10] = test: minimal bactericidal concentration (MBC) assay, strain 1650; format: cell-based; conditions: Acinetobacter baumannii, Table 8, read-out: MBC90 1650
Description: as §2, §1

A. baumannii 1651 [11] = test: minimal bactericidal concentration (MBC) assay, strain 1651; format: cell-based; conditions: Acinetobacter baumannii, Table 8, read-out: MBC90 1651
Description: as §2, §1

A. baumannii 1652 [12] = test: minimal bactericidal concentration (MBC) assay, strain 1652; format: cell-based; conditions: Acinetobacter baumannii, Table 8, read-out: MBC90 1652
Description: as §2, §1

[13] = test system: A. baumannii 1403 biofilm; test: biofilm eradication determination assay, strain 1403; format: cell-based, Acinetobacter baumannii; conditions: 90% biofilm eradication, Table 8
Experimental: (§3) These assays were performed as described by us previously,^26,24 as follows. Each of the A. baumannii strains were grown overnight in Mueller Hinton Broth (MHB). The next day these were used to seed fresh MHB to an OD600 of 0.5, with 150 μL then added to the wells of a 96 well plate and grown for 24 hours at 37° C. After 24 hours, the planktonic bacteria were carefully removed and fresh MHB was added with increasing concentrations of lead quinazolines. After incubation at 37° C. for 24 hours, planktonic cells were removed and biofilms were washed three times with phosphate buffered saline (PBS). Biofilms were then resuspended in PBS and plated for cell viability on tryptic soy agar. Biofilm recovery was assessed compared to no drug controls, and determined as percent eradication. This was used to determine MBEC90 values (Minimal Biofilm Eradication Concentration), where the viability of cells within the biofilm was reduced by 90%.

[14] = test system: A. baumannii 1646 biofilm; test: biofilm eradication determination assay, strain 1646; format: cell-based, Acinetobacter baumannii
Experimental: as §3

[15] = test system: A. baumannii 1649 biofilm; test: biofilm eradication determination assay, strain 1649; format: cell-based, Acinetobacter baumannii; conditions: 90% biofilm eradication, Table 8
Experimental: as §3

[16] = test system: A. baumannii 1650 biofilm; test: biofilm eradication determination assay, strain 1650; format: cell-based, Acinetobacter baumannii; conditions: 90% biofilm eradication, Table 8
Experimental: as §3

[17] = test system: A. baumannii 1651 biofilm; test: biofilm eradication determination assay, strain 1651; format: cell-based, Acinetobacter baumannii; conditions: 90% biofilm eradication, Table 8
Experimental: as §3

[18] = test system: A. baumannii 1652 biofilm; test: biofilm eradication determination assay, strain 1652; format: cell-based, Acinetobacter baumannii; conditions: 90% biofilm eradication, Table 8
Experimental: as §3

A. baumannii strain 1403 = format: cell-based, Acinetobacter baumannii; conditions: serial passage, 8 days, start 0.5× MIC
Experimental: An important attribute of novel antibiotics is the ability to fend off the development of resistance towards their effects. To assess this capacity, A. baumannii strains were incubated overnight with 0.5× MIC of each of the frontrunners. The next day cells were washed and used to inoculate fresh media that contained a two-fold increase in drug. This was repeated for a total of 8 days, alongside sulfamethoxazole (SMX) and trimethoprim (TMP) controls, both of which target the same pathway as our lead agents (FIG. 2).
In order to test potential resistance towards the quinazolines, a serial passage assay was performed alongside control compounds (Sulfamethoxazole and Trimethoprim), as described by us previously.^24 A. baumannii strain 1403 was grown overnight in LB media at 37° C. The next day cultures were diluted 1:100 in fresh media and seeded into a 96-well plate. Lead quinazolines or control agents were added to respective wells at half MIC concentrations. […] These were then grown overnight, and the procedure repeated for a total of eight days.

human HepG2 cells = format: cell-based
Experimental: Cytotoxicity assays were performed using human HepG2 cells (human liver epithelial with hepatocellular carcinoma), as described by us previously.^17,24 Cells were cultured in Dulbecco's modified eagle medium (DMEM), supplemented with 10% fetal bovine serum and 1% penicillin-streptomycin for 3 days at 37° C. and 5% CO2. Cells were then diluted to 1×10^5 ml^−1 using fresh DMEM and added to 96 well tissue culture plates at a volume of 100 μL. Plates were incubated for 24 hours at 37° C. and 5% CO2, allowing the cells to adhere to the plastic. […] Plates were then incubated for 48 hours at 37° C. and 5% CO2. After 48 hours the DMEM was removed and 100 μL of new media was added containing MTT (3-(4, 5-dimethylthiazol-2-yl)-2, 5-diphenyltetrazolium bromide), followed by incubation for four hours at 37° C. and 5% CO2. […] Lead compounds were solvated in 100% DMSO for these studies, which served as the negative control. LD50 values were determined for each compound by comparison to vehicle only controls.

[19] = test system: A. baumannii dihydrofolate reductase (DHFR) enzyme; test: tetrahydrofolic acid in vitro rescue assay; format: cell-based; conditions: tetrahydrofolic acid 0-225 μM; 24 hours incubation
Experimental: To evaluate the effect quinazolines have on DHFR reduction of dihydrofolic acid, a tetrahydrofolic acid assay was performed as described by us previously.^17 A. baumannii strain 1403 was grown overnight in LB, and then diluted 1:1000 into fresh media. These cultures were then seeded into a sterile 96-well plate with tetrahydrofolic acid added at concentrations ranging from 0 to 225 μM. […] MICs were determined and used to assess whether the addition of tetrahydrofolic acid rescued A. baumannii growth from quinazoline inhibition. Assays were repeated in triplicate, alongside trimethoprim and sulfamethoxazole controls.

A. baumannii 1646 [20] = test: murine model of lethal peritonitis; format: in vivo, mice; conditions: 30 mg kg^-1 intraperitoneal, one hour post challenge, 5 days
Experimental: As a final assessment, we used a murine model of lethal A. baumannii infection to determine the efficacy of quinazolines in vivo. This was performed using frontrunner 5, which had the most promising properties from all of our biological testing. Accordingly, mice were inoculated with a lethal dose of A. baumannii via intraperitoneal injection on the right side of the abdomen. One hour post challenge, mice were treated with an intraperitoneal injection of 2 mg kg^−1 of frontrunner 5 on the left side of the abdomen. As a control, we also performed similar testing using 30 mg kg^−1 of tigecycline, which we already know our test strain to be susceptible to in vitro.
Characteristics of pre-moribund state include: hunched posture, rapid, shallow and/or labored breathing, ruffled fur, lethargy, failure to respond to stimuli, soiled anogenital area, paralysis, paresis, head tilt, circling, vocalizations, non-purposeful movements, and/or were unable to eat or drink. Those mice reaching this state prior to the completion of the 5-day infection period were euthanized. The number of mice surviving between control and treatment groups was compared and analyzed for statistical significance using a log-rank (Mantel-Cox) test.

Experimental for human red blood cells: A hemolysis assay was performed using whole human blood (Bioreclamation), as described previously.^24 Briefly, human red blood cells (hRBCs) were resuspended in 20% v/v 1×HA buffer (4.25 mL 10% NaCl; 1 mL CaCl2) in 50 mL sterile water), before lead compounds were added at 2 μM, 10 μM and 20 μM, in a final volume of 100 μL. Cells were incubated for 15 minutes at 37° C. before being centrifuged at 5,500 g for 1 minute to pellet non-lysed hRBCs. The supernatant was removed, added to a 96-well Microtiter plate and the OD543 read using a BioTek Synergy2 plate reader. The negative control was vehicle only (DMSO), and the positive control was 1% triton X-100.

For `CNc1nc(NCc2ccccc2)nc2ccc(Br)cc12` [Compound 4, N^2-Benzyl-6-bromo-N^4-methylquinazoline-2,4-diamine], the MIC (A. baumannii 1403 [1]; Table 2, read-out: 1403 MIC) was 50 µM (≈ 17.2 µg/mL), the MIC (A. baumannii 1403 [1]; lead quinazolines, Table 8, read-out: MIC 1403) was 25 µM (≈ 8.58 µg/mL) and the MIC (A. baumannii 1646 [2]; Table 6, representative data for isolate 1646, read-out: MIC) was 0.5 µM (≈ 0.172 µg/mL). The MIC (A. baumannii 1646 [2]; strain 1646, Table 2, read-out: 1646 MIC) was 2 µM (≈ 0.686 µg/mL), the MIC (A. baumannii 1646 [2]; strain 1646, lead quinazolines, Table 8, read-out: MIC 1646) was 0.5 µM (≈ 0.172 µg/mL) and the MIC (A. baumannii 1649 [3]; Table 2, read-out: 1649 MIC) was 12 µM (≈ 4.12 µg/mL). The MIC (A. baumannii 1649 [3]; lead quinazolines, Table 8, read-out: MIC 1649) was 11 µM (≈ 3.78 µg/mL), the MIC (A. baumannii 1650 [4]; Table 2, read-out: 1650 MIC) was 15 µM (≈ 5.15 µg/mL) and the MIC (A. baumannii 1650 [4]; lead quinazolines, Table 8, read-out: MIC 1650) was 12 µM (≈ 4.12 µg/mL). The MIC (A. baumannii 1651 [5]; Table 2, read-out: 1651 MIC) was 8 µM (≈ 2.75 µg/mL), the MIC (A. baumannii 1651 [5]; lead quinazolines, Table 8, read-out: MIC 1651) was 5 µM (≈ 1.72 µg/mL) and the MIC (A. baumannii 1652 [6]; Table 2, read-out: 1652 MIC) was 20 µM (≈ 6.86 µg/mL). It also gave an MIC (A. baumannii 1652 [6]; lead quinazolines, Table 8, read-out: MIC 1652) of 20 µM (≈ 6.86 µg/mL), an MBC (A. baumannii 1403 [7]) of 22 µM (≈ 7.55 µg/mL) and an MBC (A. baumannii 1646 [8]; Acinetobacter baumannii, 1646, strain 1646, Table 8 and text, read-out: MBC90 1646) of 0.81 µM (≈ 0.278 µg/mL). For the same compound, the MBC (A. baumannii 1646 [8]; Acinetobacter baumannii, Table 6, representative data for isolate 1646, read-out: MBC90) was 0.8 µM (≈ 0.275 µg/mL), the MBC (A. baumannii 1649 [9]) was 4.7 µM (≈ 1.61 µg/mL) and the MBC (A. baumannii 1650 [10]) was 15 µM (≈ 5.15 µg/mL). For the same compound, the MBC (A. baumannii 1651 [11]) was 2.1 µM (≈ 0.721 µg/mL), the MBC (A. baumannii 1652 [12]) was 9.7 µM (≈ 3.33 µg/mL) and the “MBEC90 1403” value [13] was 26 µM. For the same compound, the MBEC90 ([14]; Table 6, representative data for isolate 1646) was 3.3 µM, the “reduction in biofilm viability” value ([14]; at 50 μM, strain 1646) was 3.6 log and the “MBEC90 1646” value ([14]; strain 1646, 90% biofilm eradication, Table 8 and text) was 3.3 µM. For the same compound, the “MBEC90 1649” value [15] was 44.33 µM, the “MBEC90 1650” value [16] was 9.61 µM and the “MBEC90 1651” value [17] was 37.34 µM. The “MBEC90 1652” value [18] was over 100 µM, the “increase in MIC over the 8-day test period” value (A. baumannii strain 1403) was 4 fold and the HepG2 cell viability (human HepG2 cells; at 25 μM (highest concentration tested)) was 43%. For the same compound, the “LD50(HepG2)” value (human HepG2 cells; human, 48 h) was 23 µM.

With `CNc1nc(NCc2ccccc2)nc2ccc(C(C)C)cc12` [Compound 25, N^2-Benzyl-6-isopropyl-N^4-methylquinazoline-2,4-diamine] the MIC (A. baumannii 1403 [1]; Tables 1, 3, 4, 5 and footnotes, read-out: 1403 MIC) was over 50 µM, the MIC (A. baumannii 1646 [2]; strain 1646, Tables 1, 3, 4, 5 and footnotes, read-out: 1646 MIC) was 25 µM (≈ 7.66 µg/mL) and the MIC (A. baumannii 1649 [3]; Tables 1, 3, 4, 5 and footnotes, read-out: 1649 MIC) was 35 µM (≈ 10.7 µg/mL). The MIC (A. baumannii 1650 [4]; Tables 1, 3, 4, 5 and footnotes, read-out: 1650 MIC) was over 50 µM, the MIC (A. baumannii 1651 [5]; Tables 1, 3, 4, 5 and footnotes, read-out: 1651 MIC) was 35 µM (≈ 10.7 µg/mL) and the MIC (A. baumannii 1652 [6]; Tables 1, 3, 4, 5 and footnotes, read-out: 1652 MIC) was over 50 µM. The “concentration giving complete eradication of bacterial growth” value (A. baumannii 1646 [8]; isolate 1646) was 5 µM and the “THF concentration sufficient to rescue bacterial growth” value [19] was 10 µM.

Triton X-100 was tested, and the “lysis of human red blood cells” value (human red blood cells) was 100%.

For `CN(C)c1cc(NC(=O)CNC(C)(C)C)c(O)c2c1C[C@H]1C[C@H]3[C@H](N(C)C)C(O)=C(C(N)=O)C(=O)[C@@]3(O)C(O)=C1C2=O` [tigecycline, reference compound], the “survival rate of infected animals” value (A. baumannii 1646 [20]) was 66%.
